Columns and labels:
SNB-75 = assay: cells; conditions: Homo sapiens
Description: Anticancer activity against human SNB75 cells

SNB-19 = assay: cells; conditions: Homo sapiens
Description: Anticancer activity against human SNB19 cells

RXF 393 = assay: cells; conditions: Homo sapiens
Description: Anticancer activity against human RXF393 cells

HT-29 = assay: cells; conditions: Homo sapiens
Description: Anticancer activity against human HT-29 cells

KM12 = assay: cells; conditions: Homo sapiens
Description: Anticancer activity against human KM12 cells

LOX IMVI = assay: cells; conditions: Homo sapiens
Description: Anticancer activity against human LOXIMVI cells

cells = conditions: Homo sapiens, Hs-578T
Description: Anticancer activity against human Hs 578T cells

MDA-MB-231 = assay: cells; conditions: Homo sapiens
Description: Anticancer activity against human MDA-MB-231 cells

A549 = assay: cells; conditions: Homo sapiens
Description: Anticancer activity against human A549 cells

UACC-257 = assay: cells; conditions: Homo sapiens
Description: Anticancer activity against human UACC257 cells

EKVX = assay: cells; conditions: Homo sapiens
Description: Anticancer activity against human EKVX cells

BT-549 = assay: cells; conditions: Homo sapiens
Description: Anticancer activity against human BT549 cells

NCI-H322M = assay: cells; conditions: Homo sapiens
Description: Anticancer activity against human NCI-H322M cells

HOP-92 = assay: cells; conditions: Homo sapiens
Description: Anticancer activity against human HOP92 cells

NCI-H23 = assay: cells; conditions: Homo sapiens
Description: Anticancer activity against human NCI-H23 cells

A498 = assay: cells; conditions: Homo sapiens
Description: Anticancer activity against human A498 cells

in vivo = conditions: mouse, cancer cell lines
Description: Toxicity in cancer cells containing hollow fiber implanted mouse

UACC-62 = assay: cells; conditions: Homo sapiens
Description: Anticancer activity against human UACC62 cells

Nucleic Acid = conditions: Homo sapiens
Description: Binding affinity to human G-quadruplex DNA assessed as change in melting temperature by FRET-melting assay

NCI-H522 = assay: cells; conditions: Homo sapiens
Description: Anticancer activity against human NCI-H522 cells

Vero = assay: cells; conditions: Chlorocebus sabaeus, 48 h
Description: Cytotoxicity against african green monkey Vero cells after 48 hrs by MTT assay

NCI-H226 = assay: cells; conditions: Homo sapiens
Description: Anticancer activity against human NCI-H226 cells

OVCAR-5 = assay: cells; conditions: Homo sapiens
Description: Anticancer activity against human OVCAR5 cells

TK-10 = assay: cells; conditions: Homo sapiens
Description: Anticancer activity against human TK10 cells

HOP-62 = assay: cells; conditions: Homo sapiens
Description: Anticancer activity against human HOP62 cells

IGROV-1 = assay: cells; conditions: Homo sapiens
Description: Anticancer activity against human IGROV1 cells

K562 = assay: cells; conditions: Homo sapiens
Description: Anticancer activity against human K562 cells

MDA-MB-435 = assay: cells; conditions: Homo sapiens
Description: Anticancer activity against human MDA-MB-435 cells

HCT-15 = assay: cells; conditions: Homo sapiens
Description: Anticancer activity against human HCT15 cells

SF-295 = assay: cells; conditions: Homo sapiens
Description: Anticancer activity against human SF295 cells

786-0 = assay: cells; conditions: Homo sapiens
Description: Anticancer activity against human 786-0 cells

T47D = assay: cells; conditions: Homo sapiens
Description: Anticancer activity against human T47D cells

OVCAR-8 = assay: cells; conditions: Homo sapiens
Description: Anticancer activity against human OVCAR8 cells

HL-60(TB) = assay: cells; conditions: Homo sapiens
Description: Anticancer activity against human HL-60(TB) cells

CCN(CC)CCCCNc1c2ccccc2[n+](C)c2c1[nH]c1ccccc12.[Cl-]
GI50 (SNB-75; SNB-75, read-out: pGI50 (converted)): 347 nM
CC50 (SNB-75; SNB-75, read-out: pLC50 (converted)): 3800 nM
TGI (SNB-75; SNB-75, read-out: pTGI): 1290 nM
GI50 (SNB-19; SNB-19, read-out: pGI50 (converted)): 224 nM
CC50 (SNB-19; SNB-19, read-out: pLC50 (converted)): 89100 nM
TGI (SNB-19; SNB-19, read-out: pTGI): 871 nM
GI50 (RXF 393; RXF 393, read-out: pGI50 (converted)): 389 nM
CC50 (RXF 393; RXF 393, read-out: pLC50 (converted)): 8130 nM
TGI (RXF 393; RXF 393, read-out: pTGI): 1510 nM
GI50 (HT-29; HT-29, read-out: pGI50 (converted)): 251 nM
CC50 (HT-29; HT-29, read-out: pLC50 (converted)): > 100000 nM
TGI (HT-29; HT-29, read-out: pTGI): 1910 nM
GI50 (KM12; KM12, read-out: pGI50 (converted)): 372 nM
CC50 (KM12; KM12, read-out: pLC50 (converted)): 70800 nM
TGI (KM12; KM12, read-out: pTGI): 4470 nM
GI50 (LOX IMVI; read-out: pGI50 (converted)): 331 nM
CC50 (LOX IMVI; read-out: pLC50 (converted)): 7410 nM
TGI (LOX IMVI; read-out: pTGI): 1410 nM
GI50 (cells; read-out: pGI50 (converted)): 269 nM
CC50 (cells; read-out: pLC50 (converted)): 93300 nM
TGI (cells; read-out: pTGI): 955 nM
GI50 (MDA-MB-231; MDA-MB-231, read-out: pGI50 (converted)): > 100000 nM
CC50 (MDA-MB-231; MDA-MB-231, read-out: pLC50 (converted)): 100000 nM
TGI (MDA-MB-231; MDA-MB-231, read-out: pTGI): > 100000 nM
GI50 (A549; A549, read-out: pGI50 (converted)): 52.5 nM
CC50 (A549; A549, read-out: pLC50 (converted)): > 100000 nM
TGI (A549; A549, read-out: pTGI): 15500 nM
GI50 (UACC-257; UACC-257, read-out: pGI50 (converted)): 1550 nM
CC50 (UACC-257; UACC-257, read-out: pLC50 (converted)): > 100000 nM
TGI (UACC-257; UACC-257, read-out: pTGI): 5750 nM
GI50 (EKVX; read-out: pGI50 (converted)): 269 nM
CC50 (EKVX; read-out: pLC50 (converted)): > 100000 nM
TGI (EKVX; read-out: pTGI): 3630 nM
GI50 (BT-549; BT-549, read-out: pGI50 (converted)): 1380 nM
CC50 (BT-549; BT-549, read-out: pLC50 (converted)): 7940 nM
TGI (BT-549; BT-549, read-out: pTGI): 3310 nM
GI50 (NCI-H322M; read-out: pGI50 (converted)): 275 nM
CC50 (NCI-H322M; read-out: pLC50 (converted)): > 100000 nM
TGI (NCI-H322M; read-out: pTGI): 2750 nM
GI50 (HOP-92; HOP-92, read-out: pGI50 (converted)): 263 nM
CC50 (HOP-92; HOP-92, read-out: pLC50 (converted)): > 100000 nM
TGI (HOP-92; HOP-92, read-out: pTGI): 955 nM
GI50 (NCI-H23; NCI-H23, read-out: pGI50 (converted)): 191 nM
CC50 (NCI-H23; NCI-H23, read-out: pLC50 (converted)): 3470 nM
TGI (NCI-H23; NCI-H23, read-out: pTGI): 724 nM
GI50 (A498; A498, read-out: pGI50 (converted)): 468 nM
CC50 (A498; A498, read-out: pLC50 (converted)): < 7590 nM
TGI (A498; A498, read-out: pTGI): 2040 nM
MTD (in vivo): 50 mg/kg
GI50 (UACC-62; UACC-62, read-out: pGI50 (converted)): 83.2 nM
CC50 (UACC-62; UACC-62, read-out: pLC50 (converted)): 589 nM
TGI (UACC-62; UACC-62, read-out: pTGI): 234 nM
ΔTm (Nucleic Acid): 20.9 °C
GI50 (NCI-H522; NCI-H522, read-out: pGI50 (converted)): 148 nM
CC50 (NCI-H522; NCI-H522, read-out: pLC50 (converted)): 1820 nM
TGI (NCI-H522; NCI-H522, read-out: pTGI): 457 nM
IC50 (Vero): 62000 nM
GI50 (NCI-H226; NCI-H226, read-out: pGI50 (converted)): 166 nM
CC50 (NCI-H226; NCI-H226, read-out: pLC50 (converted)): > 100000 nM
TGI (NCI-H226; NCI-H226, read-out: pTGI): 676 nM
GI50 (OVCAR-5; OVCAR-5, read-out: pGI50 (converted)): 851 nM
CC50 (OVCAR-5; OVCAR-5, read-out: pLC50 (converted)): > 100000 nM
TGI (OVCAR-5; OVCAR-5, read-out: pTGI): 4170 nM
GI50 (TK-10; TK-10, read-out: pGI50 (converted)): 2140 nM
CC50 (TK-10; TK-10, read-out: pLC50 (converted)): > 100000 nM
TGI (TK-10; TK-10, read-out: pTGI): 8910 nM
GI50 (HOP-62; HOP-62, read-out: pGI50 (converted)): 1100 nM
CC50 (HOP-62; HOP-62, read-out: pLC50 (converted)): 61700 nM
TGI (HOP-62; HOP-62, read-out: pTGI): 4470 nM
GI50 (IGROV-1; IGROV-1, read-out: pGI50 (converted)): 468 nM
CC50 (IGROV-1; IGROV-1, read-out: pLC50 (converted)): > 100000 nM
TGI (IGROV-1; IGROV-1, read-out: pTGI): 7410 nM
CC50 (K562; K562, read-out: pLC50 (converted)): > 100000 nM
TGI (K562; K562, read-out: pTGI): > 100000 nM
GI50 (MDA-MB-435; MDA-MB-435, read-out: pGI50 (converted)): 631 nM
CC50 (MDA-MB-435; MDA-MB-435, read-out: pLC50 (converted)): 5620 nM
TGI (MDA-MB-435; MDA-MB-435, read-out: pTGI): 2090 nM
GI50 (HCT-15; HCT-15, read-out: pGI50 (converted)): 11500 nM
CC50 (HCT-15; HCT-15, read-out: pLC50 (converted)): > 100000 nM
TGI (HCT-15; HCT-15, read-out: pTGI): 49000 nM
GI50 (SF-295; SF-295, read-out: pGI50 (converted)): 603 nM
CC50 (SF-295; SF-295, read-out: pLC50 (converted)): > 100000 nM
TGI (SF-295; SF-295, read-out: pTGI): 5010 nM
GI50 (786-0; 786-0, read-out: pGI50 (converted)): 1910 nM
CC50 (786-0; 786-0, read-out: pLC50 (converted)): 97700 nM
TGI (786-0; 786-0, read-out: pTGI): 6760 nM
GI50 (T47D; read-out: pGI50 (converted)): 129 nM
CC50 (T47D; read-out: pLC50 (converted)): 25700 nM
TGI (T47D; read-out: pTGI): 776 nM
GI50 (OVCAR-8; OVCAR-8, read-out: pGI50 (converted)): 617 nM
CC50 (OVCAR-8; OVCAR-8, read-out: pLC50 (converted)): > 100000 nM
TGI (OVCAR-8; OVCAR-8, read-out: pTGI): 10200 nM
GI50 (HL-60(TB); HL-60, read-out: pGI50 (converted)): 20400 nM
CC50 (HL-60(TB); HL-60, read-out: pLC50 (converted)): > 100000 nM
TGI (HL-60(TB); HL-60, read-out: pTGI): > 100000 nM
